Test results taken from patent publication US20180339024A1, “PEPTIDES WITH ANTI-ANGIOGENIC, ANTI-LYMPHANGIOGENIC, AND ANTI-EDEMIC PROPERTIES AND NANOPARTICLE FORMULATIONS” (Asclepix Therapeutics, LLC, priority 2015, published 2018).
Entries after “also recorded” stand apart in the source; their conditions may differ.

Legend:
[1] = Size characterization, Malvern Zetasizer Nano ZS90; type: physicochemical; details: 1 mg/ml in water
Procedure: N07 was suspended in water at 1 mg/ml and analyzed using a Malvern Zetasizer Nano ZS90. Z-average diameter and intensity-based size distribution were measured and recorded.

[2] = biological target: αVβ3 integrin (Homo sapiens, UniProt P05106+P06756); assay: Target identification of P07 (αVβ3); type: binding
[3] = test system: hepatocyte growth factor receptor (HGFR or c-met); assay: P07 inhibition of HGF receptor signaling in microvascular endothelial cells; type: cell-based; details: FIG. 1
From the text: (§1) Integrins function as co-receptors for many growth factor receptors such as VEGFR, hepatocyte growth factor receptor (HGFR or c-met), insulin-like growth factor receptor (IGFR), and platelet derived growth factor receptor (PDGFR).

[4] = test system: vascular endothelial growth factor receptor (VEGFR); assay: P07 inhibition of VEGF receptor signaling in microvascular endothelial cells; type: cell-based; details: FIG. 1
From the text: as §1

[5] = test system: rabbit eye, human VEGF induced leakage; assay: VEGF induced vascular leakage (edema) model in the rabbit eye; type: in vivo; details: about 50 μg P07 in the eye prior to VEGF injection, fluorescein i.v. 3 days after VEGF, FIG. 3
Procedure: P07 was also tested in a model of edema in the rabbit eye. In this model human VEGF was injected directly into the eye causing the local vasculature to be leaky. The extent of this leak was assessed by measuring the amount of fluorescence in the eye resulting from the leakage of sodium fluorescein administered intravenously 3 days after VEGF injection.

[6] = test system: platelet derived growth factor receptor (PDGFR); assay: P07 inhibition of PDGF receptor signaling; type: cell-based
From the text: as §1

[7] = test system: insulin-like growth factor receptor (IGFR); assay: P07 inhibition of IGF receptor signaling in microvascular endothelial cells; type: cell-based; details: FIG. 1
From the text: as §1

[8] = test system: transgenic mouse over-expressing the human form of vascular endothelial growth factor (VEGF) in the retina; assay: Vascular leakage and retinal detachment in transgenic mouse over-expressing human VEGF in the retina; type: in vivo
From the text: The vascular leakage in this model is so severe that the blood that pools behind the retina causes retinal detachment.

[9] = test system: glioblastoma xenografts; assay: Glioblastoma xenografts; type: in vivo; details: not shown
[10] = biological target: α5β1 integrin (Homo sapiens, UniProt P05556+P08648); assay: Target identification of P07 (α5β1); type: binding
[11] = test system: small cell lung cancer (SCLC) xenografts; assay: Small cell lung cancer xenografts; type: in vivo; details: not shown
[12] = test system: VEGF induced neovascularization and leakage; assay: Mouse models of retinal and choroidal neovascularization and vascular leakage; type: in vivo
[13] = test system: orthotopic triple-negative breast cancer (TNBC) xenografts; assay: Orthotopic triple-negative breast cancer xenografts; type: in vivo

Chain of α5β1 integrin (P08648 42-894 limits assumed): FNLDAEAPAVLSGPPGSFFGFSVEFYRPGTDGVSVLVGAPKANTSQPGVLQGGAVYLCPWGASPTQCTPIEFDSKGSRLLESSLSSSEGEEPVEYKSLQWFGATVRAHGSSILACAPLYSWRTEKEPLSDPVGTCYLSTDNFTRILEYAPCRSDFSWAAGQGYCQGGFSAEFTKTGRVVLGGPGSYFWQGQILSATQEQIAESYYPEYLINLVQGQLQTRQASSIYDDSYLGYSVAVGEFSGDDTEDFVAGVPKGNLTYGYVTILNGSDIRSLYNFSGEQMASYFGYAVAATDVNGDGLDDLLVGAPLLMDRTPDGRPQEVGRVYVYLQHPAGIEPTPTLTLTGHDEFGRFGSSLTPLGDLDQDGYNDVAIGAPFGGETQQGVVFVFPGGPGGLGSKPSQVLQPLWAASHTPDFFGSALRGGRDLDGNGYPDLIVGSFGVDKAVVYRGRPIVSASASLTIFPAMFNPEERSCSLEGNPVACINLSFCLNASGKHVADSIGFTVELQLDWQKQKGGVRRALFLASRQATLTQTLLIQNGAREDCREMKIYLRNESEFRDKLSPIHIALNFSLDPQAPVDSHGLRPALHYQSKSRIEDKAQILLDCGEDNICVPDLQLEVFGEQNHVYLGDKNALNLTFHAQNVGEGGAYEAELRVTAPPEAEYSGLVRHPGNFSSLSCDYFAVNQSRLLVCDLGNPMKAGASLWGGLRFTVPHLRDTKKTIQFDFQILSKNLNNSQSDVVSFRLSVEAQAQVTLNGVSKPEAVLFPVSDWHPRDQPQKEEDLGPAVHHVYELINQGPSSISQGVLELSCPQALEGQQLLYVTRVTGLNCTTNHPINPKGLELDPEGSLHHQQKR
Chain of α5β1 integrin (P08648 895-1049 partner limits assumed): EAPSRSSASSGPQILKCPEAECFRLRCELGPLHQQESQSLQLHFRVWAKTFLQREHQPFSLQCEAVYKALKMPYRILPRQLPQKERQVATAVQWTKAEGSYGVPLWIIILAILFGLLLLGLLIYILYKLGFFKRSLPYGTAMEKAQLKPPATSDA
Chain of α5β1 integrin (P05556 21-798): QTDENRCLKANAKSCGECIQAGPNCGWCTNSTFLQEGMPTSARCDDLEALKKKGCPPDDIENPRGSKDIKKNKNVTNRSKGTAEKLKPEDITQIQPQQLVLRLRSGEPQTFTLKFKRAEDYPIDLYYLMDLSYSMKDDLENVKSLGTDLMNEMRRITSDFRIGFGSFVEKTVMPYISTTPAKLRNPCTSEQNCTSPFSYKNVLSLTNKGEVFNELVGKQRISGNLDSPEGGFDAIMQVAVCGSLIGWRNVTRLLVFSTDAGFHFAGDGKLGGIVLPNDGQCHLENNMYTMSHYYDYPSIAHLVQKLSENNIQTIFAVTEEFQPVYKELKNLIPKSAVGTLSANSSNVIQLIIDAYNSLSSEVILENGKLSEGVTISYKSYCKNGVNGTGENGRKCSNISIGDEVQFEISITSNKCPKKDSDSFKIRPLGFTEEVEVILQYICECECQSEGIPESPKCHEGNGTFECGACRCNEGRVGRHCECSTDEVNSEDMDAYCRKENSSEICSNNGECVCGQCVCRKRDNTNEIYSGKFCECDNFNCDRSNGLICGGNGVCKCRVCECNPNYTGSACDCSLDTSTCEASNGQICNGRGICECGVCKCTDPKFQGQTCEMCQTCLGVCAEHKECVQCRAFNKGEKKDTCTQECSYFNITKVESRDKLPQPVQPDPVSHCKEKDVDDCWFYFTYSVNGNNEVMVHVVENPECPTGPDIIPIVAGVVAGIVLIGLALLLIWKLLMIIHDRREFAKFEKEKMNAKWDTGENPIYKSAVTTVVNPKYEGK
Chain of αVβ3 integrin (P06756 31-889 limits assumed): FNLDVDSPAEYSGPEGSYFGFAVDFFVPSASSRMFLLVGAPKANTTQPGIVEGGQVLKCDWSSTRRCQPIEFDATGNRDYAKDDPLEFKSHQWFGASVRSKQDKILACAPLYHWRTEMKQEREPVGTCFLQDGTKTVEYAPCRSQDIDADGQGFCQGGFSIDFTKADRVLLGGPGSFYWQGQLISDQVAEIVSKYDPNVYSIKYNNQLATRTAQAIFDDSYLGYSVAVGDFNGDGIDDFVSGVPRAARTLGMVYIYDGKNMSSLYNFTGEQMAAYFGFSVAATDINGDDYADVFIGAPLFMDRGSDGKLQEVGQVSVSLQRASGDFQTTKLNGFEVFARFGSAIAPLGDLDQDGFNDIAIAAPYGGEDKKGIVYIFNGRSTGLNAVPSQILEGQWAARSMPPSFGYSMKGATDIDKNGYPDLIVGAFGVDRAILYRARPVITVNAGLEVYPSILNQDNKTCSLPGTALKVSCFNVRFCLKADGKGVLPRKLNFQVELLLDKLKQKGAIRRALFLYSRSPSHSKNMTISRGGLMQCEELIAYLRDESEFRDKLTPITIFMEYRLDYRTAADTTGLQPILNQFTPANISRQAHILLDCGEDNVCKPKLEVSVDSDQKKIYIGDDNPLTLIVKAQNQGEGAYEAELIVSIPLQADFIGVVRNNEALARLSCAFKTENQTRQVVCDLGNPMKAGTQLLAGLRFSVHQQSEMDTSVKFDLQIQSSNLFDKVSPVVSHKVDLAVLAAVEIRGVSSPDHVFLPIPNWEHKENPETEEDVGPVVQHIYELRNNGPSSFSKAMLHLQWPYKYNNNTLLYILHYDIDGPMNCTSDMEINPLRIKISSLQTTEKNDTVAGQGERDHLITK
Chain of αVβ3 integrin (P06756 891-1048 partner limits assumed): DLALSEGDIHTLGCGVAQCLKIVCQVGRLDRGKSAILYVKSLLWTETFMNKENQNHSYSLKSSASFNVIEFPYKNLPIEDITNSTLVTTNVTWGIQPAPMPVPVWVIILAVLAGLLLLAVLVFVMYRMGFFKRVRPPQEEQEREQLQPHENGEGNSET
Chain of αVβ3 integrin (P05106 27-788): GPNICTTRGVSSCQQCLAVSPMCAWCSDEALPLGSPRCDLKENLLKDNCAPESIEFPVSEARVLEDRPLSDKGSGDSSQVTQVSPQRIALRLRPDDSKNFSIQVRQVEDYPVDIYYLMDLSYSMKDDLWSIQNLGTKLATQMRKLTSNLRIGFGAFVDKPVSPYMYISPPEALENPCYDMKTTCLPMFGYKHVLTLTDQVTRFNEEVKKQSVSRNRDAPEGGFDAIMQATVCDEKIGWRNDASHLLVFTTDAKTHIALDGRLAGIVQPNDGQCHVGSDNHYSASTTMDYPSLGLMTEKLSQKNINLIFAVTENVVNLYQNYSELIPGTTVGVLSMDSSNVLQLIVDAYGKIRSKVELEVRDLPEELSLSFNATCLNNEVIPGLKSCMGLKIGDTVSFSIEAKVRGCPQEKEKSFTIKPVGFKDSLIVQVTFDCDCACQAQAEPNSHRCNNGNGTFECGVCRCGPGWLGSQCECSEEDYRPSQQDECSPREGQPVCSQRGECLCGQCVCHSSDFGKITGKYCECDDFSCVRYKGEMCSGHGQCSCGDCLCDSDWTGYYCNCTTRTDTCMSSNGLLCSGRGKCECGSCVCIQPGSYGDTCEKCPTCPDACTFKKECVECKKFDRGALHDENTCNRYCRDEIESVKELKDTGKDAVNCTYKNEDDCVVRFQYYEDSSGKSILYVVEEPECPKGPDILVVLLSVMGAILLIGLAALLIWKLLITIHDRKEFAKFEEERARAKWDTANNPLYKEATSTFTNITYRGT

Substance: PLGA-PEG-P07: nanoparticles made completely of PLGA-PEG-P07 conjugated polymer (LRRFSTAPFAFIDINDVINF)
- PDI [1]: 0.29
- Z-Average [1]: 77.59 ± 2.65 nm·days

Substance: LRRFSTAPFAFIDINDVINF [P07]
- identified target: αVβ3 integrin [2]: identified to be the α5β1 and αVβ3 integrins
- inhibition of signaling from HGFR (c-met) [3]: inhibit signaling
- inhibition of signaling from VEGFR [4]: inhibit signaling
- vascular leakage (sodium fluorescein fluorescence in the eye) [5]: dramatically inhibited
- inhibition of signaling from PDGFR [6]: inhibit signaling
- inhibition of signaling from IGFR [7]: inhibit signaling
- vascular leakage [8]: inhibit vascular leakage
- retinal detachment ([8]; FIG. 2): almost completely blocked retinal detachment
- growth of glioblastoma xenografts [9]: inhibits the growth
- identified target: α5β1 integrin [10]: identified to be the α5β1 and αVβ3 integrins
- growth of SCLC xenografts [11]: inhibits the growth
- VEGF induced neovascularization and leakage [12]: strongly inhibits
- growth of orthotopic TNBC xenografts ([13]; FIG. 4): inhibits the growth; also recorded: dose dependent manner
- tumor vasculature / neovascularization in orthotopic TNBC xenografts ([13]; FIG. 5): dramatically diminished vasculature; also recorded: inhibits neovascularization
